Data as given in patent publication US20090197957A1, “Methods and compositions for the treatment of pain” (Nuon Therapeutics, Inc., priority 2005, published 2009).

Key:
[1] = system: mechanical and thermal allodynia in CIA; experiment: Allodynia assessment in arthritic mice (Plantar Von-Frey, Hargreaves test); format: in vivo
Procedure: FIG. 6 is an image depicting that 3,4-DAA inhibits mechanical and thermal allodynia, and inhibits astrocytic activation in arthritic mice. Mechanical (a) and thermal (b) allodynia, and paw swelling (c) and clinical score (d) were assessed in naïve mice on the day of arthritis onset, and up to 10 days following therapy with 200 mg/kg 3,4-DAA, […] dexamethasone, or vehicle. […] Whilst 3,4-DAA therapy reduced astrocytic activation (bottom right panel) dexamethasone had no action on GFAP levels (bottom left panel). Quantification of the number of hyper-plastic astrocytes in the spinal cord 10 days following onset of arthritis was performed (f).
The pain thresholds of the mice were assessed prior to immunization (naïve) on day of onset (day 0) and up to 10 days following therapy with 3,4-DAA (200 mg/kg/day), dexamethasone (0.5 mg/kg/2 days) or vehicle alone (n=9 per group). The Ugo Basile 37400 Plantar Von-Frey microprocessor controlled unit was used to assess mechanical hyperalgesia and Ugo Basile 7370-6 Plantar Test (Hargreaves test) was used to assess thermal hyperalgesia. Mechanical hyperalgesia was assessed by applying an increasing force to the hind paw at the rate of 3 g/second, and measuring the force required to elicit lifting of the paw. Thermal hyperalgesia was assessed by applying an increasing infrared source (intensity 50), and measuring the time required for lifting of the paw.

purified B cells = experiment: B cell proliferation in vitro (anti-CD40, 3H-thymidine incorporation); format: cell-based; details: anti-CD40 stimulation, 72 h; for IC50: B-cell, read-out: IC50 for inhibition of B cell proliferation; for B cell proliferation: varying doses
Procedure: (§1) FIG. 7 is a graphical representation depicting that 3,4-DAA and 3-HAA inhibit B and T cell proliferation in vitro. Purified B and T cells were stimulated for 72 h with anti-CD40 (a), or anti-CD3/anti-CD28 (b) respectively, in the presence of varying doses of 3,4-DAA, or 3-HAA.
(§2) A single cell suspension was prepared by pushing splenic tissue through a cell strainer, and erythrocytes were lysed using an ammonium chloride solution (Sigma, St Louis, Mo.). B cells were positively enriched by using anti-IgM microbeads (BD Pharmingen), and T cells were positively enriched using anti-CD4 MACS microbeads, according to the manufacturer's guidelines (Miltenyi Biotec, Bergisch Gladbach, Germany). Purity was assessed by flow cytometric analysis (B cell>90% CD19+, T cell>90% CD4+). Cells were cultured at 5×10^5 cells/ml in 200 μl complete RPMI, as above, in a flat bottom 96-well plate and cultured for 72 h. B cells were stimulated with anti-CD40 monoclonal antibody (10 μg/ml; BD), and T cells were stimulated with 5 μg/ml plate-bound anti-CD3 (ebiosciences) plus 5 μg/ml soluble anti-CD28 (ebiosciences). 3,4-DAA, 3-HAA, or vehicle (DMSO) was added at graded concentrations immediately prior to stimulation. 48 hours after stimulation, 100 μl culture medium was collected, and cells were pulsed with 1 μCi ^3H thymidine per well for 18 h. Cells were then harvested and plates assessed for thymidine incorporation. Each assay was performed on a minimum of 3 occasions. IFN-γ, IL-10 and IL-5 levels were assessed in the culture medium by ELISA, as above.
(§3) Activation of purified B (FIG. 7a) and T cells (FIG. 7b) was induced by anti-CD40, and anti-CD3/CD28 respectively, and proliferation was assessed by ^3H-thymidine incorporation. […] Inhibition of proliferation was also observed when B cells were stimulated with LPS or anti-IgM. […] It was concluded that the effects of 3,4-DAA and 3-HAA on T and B cells in vitro were remarkably similar, though not identical. It is of also note that 3-HAA had no action on inflammation or allodynia, when administered therapeutically in CIA at doses of up to 400 mg/kg/day.

T-cells = experiment: Cytokine production by stimulated T cells in vitro (ELISA); format: cell-based; details: anti-CD3/anti-CD28 stimulation, graded concentrations
Procedure: as §1, §2, §3

[2] = established arthritis, up to 10 days therapy, 3,4-DAA 200 mg/kg/day, dexamethasone 0.5 mg/kg/2 days

Compound | mechanical allodynia [1, 2] | thermal allodynia [1, 2] | IC50 (purified B cells) [µM] | B cell proliferation (purified B cells) | IFN-γ production by T-cells (T-cells) | IL-5 production by T-cells (T-cells) | IL-10 production by T-cells (T-cells) | action on allodynia in CIA ([1]; administered therapeutically at doses of up to 400 mg/kg/day)
COc1ccc(/C=C/C(=O)Nc2ccccc2C(=O)O)cc1OC [Tranilast, 2-[[3-(3,4-dimethoxyphenyl)-1-oxo-2-propenyl]amino]benzoic acid] | abolished | abolished | 73 | dose-dependently inhibited | dose-dependently reduced | dose-dependently inhibited | dose-dependently inhibited | –
Nc1c(O)cccc1C(=O)O [3-Hydroxyanthranilic acid] | – | – | 65 | dose-dependently inhibited | dose-dependently reduced | increased | increased | no action
